Results from patent publication US9930889B2, “Synergistic weed control from applications of penoxsulam and mefenacet” (Dow AgroSciences LLC, priority 2012, dated 2018).

Columns and labels:
Test in all cases: Field trial in flooded transplanted rice, % visual weed control
Type in all cases: in vivo
[1] = system: Echinochloa crus-galli (barnyard grass, ECHCG); details: 42 days
Source text: (§1) The (a) penoxsulam or an agriculturally acceptable salt thereof is mixed with or applied in combination with (b) mefenacet or an agriculturally acceptable salt thereof in an amount sufficient to induce a synergistic herbicidal effect. […] As described in the Herbicide Handbook of the Weed Science Society of America, Ninth Edition, 2007, p. 429, ′″synergism′ [is] an interaction of two or more factors such that the effect when combined is greater than the predicted effect based on the response to each factor applied separately.” Synergistic in the herbicide context can mean that the use of (a) and (b) as defined above results in an increased weed control effect compared to the weed control effects that are possible with the use of (a) or (b) alone. In some embodiments, the damage or injury to the undesired vegetation caused by the compositions and methods disclosed herein is evaluated using a scale from 0% to 100%, when compared with the untreated control vegetation, wherein 0% indicates no damage to the undesired vegetation and 100% indicates complete destruction of the undesired vegetation. […] 22 (1967)
(§2) Field trials were conducted in Japan with applications made in the area of naturally occurring weed populations. All treatments were applied using a randomized complete block trial design, with 3 replications per treatment. Plot size was 2 meters (m)×2 m (width×length), with each plot being a separate entity and flooded with water. Rice was transplanted into the plots, and the rice crop was maintained as a normal commercial crop with appropriate fertilizer and maintenance treatments as needed. Rice size at application varied from 4 leaf to 2 tiller stage, and weeds were 1 to 5 leaf stage. All plots were maintained flooded to 3 to 6 centimeter (cm) depth and treatments were applied by hand directly into the flooded plots containing the rice and weeds.
(§3) Treatments consisted of penoxsulam and mefenacet, applied alone or in combination. Penoxsulam was applied as a granule formulation (3.5 grams of active ingredient per kilogram (g ai/kg) granule (GR)) applied directly into the flooded plots, or as a liquid formulation (31 grams of active ingredient per liter (g ai/L) emulsifiable concentrate (EC)) mixed in 1 liter (L) of solution and applied into the flooded plots. Mefenacet, as the commercial product HINOCHLOA® containing 40 g ai/kg GR, was applied directly into the flooded plots.
(§4) The treated plots and control plots were rated blind at various intervals after application. Ratings were based on a scale of 0-100%, as discussed above, wherein 0% indicates complete growth of the undesired vegetation and 100% indicates complete prevention of the undesired vegetation.
(§5) Colby's equation was used to determine the herbicidal effects expected from the mixtures, as described above. The results were measured at the evaluation intervals provided in Table 1 after the application of the compositions (penoxsulam and mefenacet, applied alone or in combination). […] The herbicide tank mix combinations tested, application rates and ratios employed, plant species tested, and results are included in Table 1 below.

[2] = system: Eleocharis kuroguwai (kuro-guwai, ELOKU)
Source text: as §1, §2, §3, §4, §5

[3] = system: Lindernia procumbens (common false pimpernel, LIDPY); details: for Penoxsulam Mean % weed control: 18 g ai/ha
Source text: as §1, §2, §3, §4, §5

[4] = system: Sagittaria pygmaea (dwarf arrowhead, SAGPY); details: 44 days
Source text: as §1, §2, §3, §4, §5

SMILES: CN(C(=O)COc1nc2ccccc2s1)c1ccccc1 [Mefenacet, 2-(2-benzothiazolyloxy)-N-methyl-N-phenylacetamide]
- Mefenacet Mean % weed control ([1]; 750 g ai/ha): 40%
- Mefenacet Mean % weed control ([2]; 34 days, 500 g ai/ha): 0%
- Mefenacet Mean % weed control ([2]; 34 days, 750 g ai/ha): 0%
- Mefenacet Mean % weed control ([2]; 34 days, 1000 g ai/ha): 0%
- Mefenacet Mean % weed control ([2]; 44 days, 1000 g ai/ha): 23%
- Mefenacet Mean % weed control ([2]; 52 days, 750 g ai/ha): 33%
- Mefenacet Mean % weed control ([2]; 52 days, 1000 g ai/ha): 20%
- Mefenacet Mean % weed control ([2]; 61 days, 1000 g ai/ha): 0%
- Mefenacet Mean % weed control ([3]; 18 days, 500 g ai/ha): 43%
- Mefenacet Mean % weed control ([3]; 18 days, 750 g ai/ha): 50%
- Mefenacet Mean % weed control ([3]; 18 days, 1000 g ai/ha): 57%
- Mefenacet Mean % weed control ([3]; 23 days, 500 g ai/ha): 0%
- Mefenacet Mean % weed control ([3]; 23 days, 750 g ai/ha): 27%
- Mefenacet Mean % weed control ([3]; 24 days, 500 g ai/ha): 0%
- Mefenacet Mean % weed control ([3]; 42 days, 500 g ai/ha): 0%
- Mefenacet Mean % weed control ([4]; 500 g ai/ha): 0%
- Mefenacet Mean % weed control ([4]; 750 g ai/ha): 0%

SMILES: COc1cnc(OC)n2nc(NS(=O)(=O)c3c(OCC(F)F)cccc3C(F)(F)F)nc12 [Penoxsulam]
- Penoxsulam Mean % weed control ([1]; 18 g ai/ha): 81%
- Penoxsulam Mean % weed control ([2]; 34 days, 18 g ai/ha): 62%
- Penoxsulam Mean % weed control ([2]; 44 days, 70 g ai/ha): 81%
- Penoxsulam Mean % weed control ([2]; 52 days, 18 g ai/ha): 34%
- Penoxsulam Mean % weed control ([2]; 52 days, 35 g ai/ha): 62%
- Penoxsulam Mean % weed control ([2]; 52 days, 70 g ai/ha): 71%
- Penoxsulam Mean % weed control ([2]; 61 days, 35 g ai/ha): 49%
- Penoxsulam Mean % weed control ([2]; 61 days, 70 g ai/ha): 61%
- Penoxsulam Mean % weed control ([3]; 18 days): 73%
- Penoxsulam Mean % weed control ([3]; 23 days): 87%
- Penoxsulam Mean % weed control ([3]; 24 days): 86%
- Penoxsulam Mean % weed control ([3]; 42 days): 83%
- Penoxsulam Mean % weed control ([4]; 35 g ai/ha): 82%
